Experimental data: patent publication US20250090552A1, “MESALAMINE PHARMACEUTICAL FORMULATIONS AND METHODS OF USE THEREOF” (Intact Therapeutics, Inc., priority 2022, published 2025)
Each block holds one compound with its values, some of them ahead of it.

Tests used:
Assay type in all cases: physicochemical
[1] = Gelation temperature (Tg/Tgel) of diluent and reconstituted formulation, initial and on stability storage
Description: The target for the 2 compartment formulations: • Gelation temperature 30-37 C • Gelation time—less than 5 minutes • Reconstitution time—less than 1 minutes • Viscosity at RT—less than 3000 cps • Reconstituted formulation should be stable for at least 3 hours
To understand the reproducibility of the gelation temperature, multiple batches were prepared and stability was monitored. In addition to this in one of batch, source of Mesalamine is varied to understand its impact on the various physical parameters.
During the stability study, only gelation temperature and the pH of the reconstituted formulation was monitored.
Formulation with 2% Lipoid S 100 has been considered as the lead formula. Reproducible batches with batch size (3-4 Kg) were manufactured and stability was monitored. These batches were packed into different packaging material MoC to understand its impact on the physical properties.

[2] = Stability of one-part formulations stored at 60° C.; details: after preparation of one-part formulations; oxidation in an aqueous solution
[3] = Excipient compatibility study (gelation temperature, constant 15% poloxamer 407); details: change from initial
Description: Excipients were studied for compatibility. Constant—15% poloxamer 407 was used. The compatibility study was carried out with the following excipients: Mesalamine—6.67%; Transcutol—10%; EDTA—0.1%; Polocarbophil—0.25%+Tris—0.15%; TPGS—0.2%; NaCl—0.5%; Sodium metabisulfite—0.2%; PVA 30 CPS—1%; Kollidon 30-1%. The following lipids were investigated: DSPC—0.5%+DPCC—0.5%; Phospholipon 90G—1%; Lipoid S 100-1%; Phospholipon 90H—1%; Lecithin—1%. The following combination of poloxamer grades was also studied Poloxamer 188-1.5, 2.5 and 5%. No or marginal impact (1-2° C. from initial) was found for the following excipients: Transcutol, EDTA, TPGS, NaCl, and PVA. Moderate impact (2-5° C. from initial) was found with Mesalamine. […] No or marginal impact (1-2° C. from initial) was found in combinations with DSPC+DPCC, Phospholipon 90 G, and Lipoid S 100. […] All poloxamer combinations were stable for 28 days.

effect of additive on gelation temperature [1]: lowers the gelation temperature
Structure (SMILES): Cc1cc(C(C)(C)C)c(O)c(C(C)(C)C)c1 [BHT]

time to turn brown [2]: ≤ 3 days
Structure (SMILES): Nc1ccc(O)c(C(=O)O)c1 [Mesalamine, 5-aminosalicylic acid]

impact on gelation temperature [3]: Significant impact
Structure (SMILES): O=S([O-])S(=O)(=O)[O-].[Na+].[Na+] [sodium metabisulfite]
